Reference: patent US4250255A, “Assay method for isoenzyme activity” (Eastman Kodak Company, priority 1977, dated 1981)
Where a name gives a salt, the structure may show the parent alone. Read-outs that look alike come from different tables or passages of the source.

How the values were obtained:
[1] = system: LD1 and LD5; assay: Screening of amphiphiles for ability to discriminate between LD1 and LD5; conditions: range of amphiphile concentrations; relative activity vs buffer
Method: A series of solutions was prepared covering a range of concentrations for each amphiphile to be tested. The activities of both LD1 and LD5 were determined in the presence of the various concentrations of each amphiphile and compared with enzyme activities in buffer (relative activity).
Enzyme activity in the presence and absence of amphiphile was measured by the following procedure: Stock solutions of NADH (4 mM) and pyruvate (40 mM) were prepared daily in 30 mM sodium phosphate buffer, pH 7.4. Enzyme solutions were prepared daily by withdrawing 5 μl of the stock enzyme solutions with a Hamilton syringe and diluting to 5 ml with 30 mM sodium phosphate buffer. (The resulting solution contains approximately 5 U of enzyme/ml.) The enzyme assay was run by pipetting 2.7 ml of buffer or buffer surfactant solution into a 10 mm path length quartz cuvette, and 100 μl each of NADH and pyruvate stock solutions were added. […] Enzyme solution was added with good mixing; the absorbance decrease at 340 nm was measured as a function of time. The rate of the reaction was determined by measuring the slope of the initial absorbance decrease, i.e., within the first 50 seconds of the reaction.

[2] = target: T1, LD1 (Sus scrofa, UniProt P00336); assay: Effect of cationic amphiphiles on the activity of LDH isoenzymes (Table 1); assay type: biochemical; conditions: 30 mM sodium phosphate buffer pH 7.4, 25° C.; for IC50: read-out: Amphiphile conc. Req'd for 50% Inactivation of Specified Isoenzyme (LD1)
Method: (§1) The assay for LDH activity in both the absence and presence of surfactant was conducted as follows. […] The resulting solution contains approximately 5 units/ml. […] To the equilibrated solution […]. of the enzyme solution was added, and the cuvette was rapidly shaken while covering the top of the cuvette with a small piece of Parafilm® and placed back into the spectrophotometer.
(§2) Amphiphile solutions were prepared by weighing out a given amount of amphiphile, e.g., 100 mg, and preparing a stock solution in 30 mM sodium phosphate buffer in 100 ml. volumetric flask. Solutions of lower amphiphile concentration were prepared by making the appropriate dilutions from the stock solution.
A number of cationic amphiphiles were investigated for specific inactivation of LD1 in the presence of LD5 and these compounds are listed in Table 1.
Target sequence in this assay (P00336 whole entry): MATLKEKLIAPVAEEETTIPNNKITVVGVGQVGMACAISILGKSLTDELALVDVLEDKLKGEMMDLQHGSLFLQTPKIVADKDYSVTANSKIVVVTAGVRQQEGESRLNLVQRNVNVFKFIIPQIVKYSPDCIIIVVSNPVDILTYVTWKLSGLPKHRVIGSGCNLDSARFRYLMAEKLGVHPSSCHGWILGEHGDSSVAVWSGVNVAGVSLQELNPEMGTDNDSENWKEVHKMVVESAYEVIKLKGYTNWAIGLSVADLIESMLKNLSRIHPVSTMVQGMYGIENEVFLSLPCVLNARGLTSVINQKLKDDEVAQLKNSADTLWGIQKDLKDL

[3] = target: T2, LD2 (Sus scrofa, UniProt P00336+P00339); assay: LDH activity assay with amphiphile, LDH isoenzymes; assay type: biochemical, porcine
T2 construct: porcine LDH, LD1, LD2, LD3, LD4 and LD5 in the form of ammonium sulfate suspensions
Method: (§3) 3. Beef heart LDH (Sigma Chemical Co., Type III), rabbit muscle LDH (Sigma Chemical Co., Type V) and porcine LDH, LD1, LD2, LD3, LD4 and LD5 in the form of ammonium sulfate suspensions were used for these examples.
as §1, §2

[4] = target: T3, LD3 (Sus scrofa, UniProt P00336+P00339); assay: LDH activity assay with amphiphile, LDH isoenzymes; assay type: biochemical, porcine
T3 construct: porcine LDH, LD1, LD2, LD3, LD4 and LD5 in the form of ammonium sulfate suspensions
Method: as §3, §1, §2

[5] = target: T4, LD4 (Sus scrofa, UniProt P00336+P00339); assay: LDH activity assay with amphiphile, LDH isoenzymes; assay type: biochemical, porcine
T4 construct: porcine LDH, LD1, LD2, LD3, LD4 and LD5 in the form of ammonium sulfate suspensions
Method: as §3, §1, §2

[6] = target: T1, LD1; assay: LDH activity assay with amphiphile, LDH isoenzymes; assay type: biochemical, porcine; set-up: porcine LDH, LD1, LD2, LD3, LD4 and LD5 in the form of ammonium sulfate suspensions
Method: as §3, §1, §2
Target sequence in this assay (P00336 2-334): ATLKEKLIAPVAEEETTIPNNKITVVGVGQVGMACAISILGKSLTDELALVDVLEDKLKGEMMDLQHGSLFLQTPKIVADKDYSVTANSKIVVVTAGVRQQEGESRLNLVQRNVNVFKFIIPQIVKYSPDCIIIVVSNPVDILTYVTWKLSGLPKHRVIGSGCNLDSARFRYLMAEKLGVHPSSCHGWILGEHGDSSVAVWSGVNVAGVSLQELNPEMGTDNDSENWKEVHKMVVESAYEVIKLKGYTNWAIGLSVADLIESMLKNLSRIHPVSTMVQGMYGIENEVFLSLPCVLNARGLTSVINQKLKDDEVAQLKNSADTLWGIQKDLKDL

[7] = target: LD5 (Sus scrofa, UniProt P00339); assay: LDH activity assay with amphiphile, LDH isoenzymes; assay type: biochemical, porcine; set-up: LD5 from two different species, i.e., rabbit muscle and hog muscle; from tissue; host or cells: hog muscle
Method: as §3, §1, §2

[8] = target: T5, LDH isoenzymes (LD5 in the presence of LD1) (Oryctolagus cuniculus, UniProt P13491); assay: Anionic amphiphiles tested for specific interaction with LDH isoenzymes (Table 2); assay type: biochemical
T5 construct: LD1 (LDHB tetramer) only as comparison
Method: as §1, §2
A number of anionic amphiphiles were investigated for specific inactivation of LD5 in the presence of LD1 and these compounds are listed in Table 2.

[9] = system: LD1; assay: LDH activity assay with amphiphile, LDH isoenzymes; assay type: biochemical, porcine; conditions: FIG. 12
Method: as §3, §1, §2

## CCCCCCCCCCCCCCCCCCNC(=O)CC(C(=O)O)S(=O)(=O)O (centres unmarked) [Disodium N-octadecylsulfosuccinamate]
[1]
  Effectiveness (LDH isoenzyme inhibition specificity, LD1 vs LD5): ++

## CCCCCCCCCCCCN [Dodecylamine . HCl]
[2]
  IC50: 13 mM
[1]
  Effectiveness (LDH isoenzyme inhibition specificity, LD1 vs LD5): ++

## CCCCCCCCCCCC[N+](C)(C)C.[Br-] [Dodecyltrimethylammonium bromide]
[2]
  IC50: 10 mM
[1]
  Effectiveness (LDH isoenzyme inhibition specificity, LD1 vs LD5): -

## CC[n+]1ccccc1.[Br-] [N-Ethylpyridinium bromide]
[2]
  Amphiphile conc. Req'd for 50% Inactivation of Specified Isoenzyme (LD1): no effect

## CCCCCCCCCCCCCCCC(=O)NCCC[N+](C)(C)CCO.[Cl-] [N-β-hydroxyethyl-N,N-dimethyl-N-3-palmitamidopropylammonium chloride]
[3]; FIG. 11
  effect on LD2 activity: inactivated mostly
[4]; FIG. 11
  effect on LD3 activity: inactivated mostly
[5]; FIG. 11
  retention of LD4 activity: ~ 60%
[1]
  Effectiveness (LDH isoenzyme inhibition specificity, LD1 vs LD5): ++
[6]; FIG. 11
  effect on LD1 activity: inactivated mostly
[7]; FIG. 11
  retention of LD5 activity: 90%

## CCCCCCCCC[N+](C)(C)C [Nonatrimethylammonium bromide]
[2]
  IC50: 0.35 mM
[1]
  Effectiveness (LDH isoenzyme inhibition specificity, LD1 vs LD5): -

## CCCCCCCCCCCCOS(=O)(=O)[O-].[Na+] [SDS, sodium dodecylsulfate]
[3]; pH 7.4, read-out: LD2 activity
  activity at 3500 µM: 0%
[3]; pH 7.4, read-out: LD2 activity remaining
  remaining activity at 1500 µM: 65%
[4]; pH 7.4, read-out: LD3 activity remaining
  remaining activity at 1500 µM: 50%
[5]; 1.5 mM SDS, FIG. 9
  LD4 activity: nil
[8]
  Interaction (specific inactivation of LD5 in the presence of LD1): useful positive results
[8]; listed as sodium dodecylsulfate
  Interaction (specific inactivation of LD5 in the presence of LD1): specific
[1]
  Effectiveness (LDH isoenzyme inhibition specificity, LD1 vs LD5): ++
[6]; pH 7.4, read-out: LD1 activity remaining
  remaining activity at 1500 µM: 95%
[6]; pH 7.4, read-out: LD1 activity, % of buffer control
  remaining activity at 3500 µM: 78%
[7]; 1.5 mM SDS, FIG. 9
  LD5 activity: nil

## CCCCCCCC/C=C\CCCCCCCC(=O)N(C)CCS(=O)(=O)O [Sodium N-methyl-N-oleoyl taurate]
[1]
  Effectiveness (LDH isoenzyme inhibition specificity, LD1 vs LD5): 0

## CCCCOS(=O)(=O)[O-].[Na+] [Sodium butyl sulfate]
[1]
  Effectiveness (LDH isoenzyme inhibition specificity, LD1 vs LD5): 0

## C[C@H](CCC(=O)O)[C@H]1CC[C@H]2[C@@H]3C(=O)C[C@@H]4CC(=O)CC[C@]4(C)[C@H]3CC(=O)[C@]12C [Sodium dehydrocholate]
[1]
  Effectiveness (LDH isoenzyme inhibition specificity, LD1 vs LD5): 0

## CCCCCCCCCCCC(=O)[O-].[Na+] [Sodium dodecanoate]
[1]
  Effectiveness (LDH isoenzyme inhibition specificity, LD1 vs LD5): 0

## CCCCCCCCOS(=O)(=O)[O-].[Na+] [Sodium octyl sulfate]
[1]
  Effectiveness (LDH isoenzyme inhibition specificity, LD1 vs LD5): +

## CCCCCCCCCCCCCCCCCC(=O)[O-].[Na+] [Sodium stearate]
[1]
  Effectiveness (LDH isoenzyme inhibition specificity, LD1 vs LD5): 0

## CCCCCCCCCCCCCCOS(=O)(=O)[O-].[Na+] [Sodium tetradecylsulfate]
[1]
  Effectiveness (LDH isoenzyme inhibition specificity, LD1 vs LD5): ++

## CCCCCCCC[N+](CCC)(CCCCCCCC)CCCCCCCC.[Br-] [Trioctylpropylammonium bromide]
[2]
  IC50: 1.6 mM
[1]
  Effectiveness (LDH isoenzyme inhibition specificity, LD1 vs LD5): 0

## C[C@H](CCC(=O)O)[C@H]1CC[C@H]2[C@@H]3C(=O)C[C@@H]4CC(=O)CC[C@]4(C)[C@H]3CC(=O)[C@]12C [dehydrocholic acid]
[8]
  Interaction (specific inactivation of LD5 in the presence of LD1): no effect

## CCCCCCCCCCCC(=O)O [lauric acid]
[8]
  Interaction (specific inactivation of LD5 in the presence of LD1): no effect

## CCCCCCCCCCCCCCCCCC(=O)[O-].[Li+] [lithium stearate]
[8]
  Interaction (specific inactivation of LD5 in the presence of LD1): no effect

## Heparin
[9]
  inactivation of LD1 compared with LD5: LD1 is more inactivated than LD5
[1]
  Effectiveness (LDH isoenzyme inhibition specificity, LD1 vs LD5): +

## Sodium isopropylnaphthalene sulfonate
[1]
  Effectiveness (LDH isoenzyme inhibition specificity, LD1 vs LD5): +

## Sodium n-decyldiphenylether disulfonate
[1]
  Effectiveness (LDH isoenzyme inhibition specificity, LD1 vs LD5): ++

## octylphenolpoly(1-oxapropene)oxaethane carboxylic acid sodium salt
[1]
  Effectiveness (LDH isoenzyme inhibition specificity, LD1 vs LD5): 0
